This is an account of results in US12474347B2, “Determination of protein information by recoding amino acid polymers into DNA polymers” (ABRUS BIO, INC., priority 2022, dated 2025).

The data set in a line: Stability of oligonucleotides in anhydrous TFA simulating Edman peptide cleavage conditions (HPLC). The format is physicochemical. Conditions: 1 hr in anhydrous TFA (DMSO/TFA, 45 deg C), FIG. 40. Here is the method: A deprotected 15mer DNA oligonucleotide (CCTGTTGTCAATGAG, Sys #003, LO1) (SEQ ID NO: 126) was obtained from Integrated DNA Technologies. Cleavage, deprotection, and desalting were performed by IDT using their standard process. It was resuspended in Mol Bio grade H2O at 160 μM and a 40 μL aliquot was dried (Eppindorf, Vacufuge+, 45° C. for ˜2 hrs) prior to subjecting to Edman cleavage chemistry. The deprotected oligonucleotide material used for the baseline measurement was resuspended as above, but not dried.
A protected DNA oligonucleotide (5Phos/ATGAGTG/iFormInd/AGGGAAATAGCTTCTGGT CGAACTAGTTGTTCGTCAA/idSp/TTTCTTT, Sys #001, SOCAB) (SEQ ID NO: 125) was liberated from CPG support using EndoIV (NEB, M0304) and desalted (Zymo) to provide five 60 μL aliquots at 70 μM of/5Phos/ATGAGTG/iFormInd/[…] (SEQ ID NO: 75), which were dried as described above. The protected oligonucleotide material used for the baseline measurement was desalted as above, but not dried.
In anhydrous environment 40 μL of DMSO was added to each dried aliquot. Following disolution 40 μL TFA was added to each. Solutions were incubated at 45 deg C. for 0 mins, 30 mins, 60 mins, 4 hrs, and overnight. Samples were neutralized by addition of 228 μL of 4.1M imidazole solution at the conclusion of their incubation period. HPLC chromatograms were collected for each sample.

With “protected oligos: protected DNA oligonucleotide liberated from CPG support, /5Phos/ATGAGTG/iFormInd/AGGGAAATAGCTTCTGGTCGAACTAGTTGTTCGTCAA (SEQ ID NO: 75) (DNA ATGAGTGNAGGGAAATAGCTTCTGGTCGAACTAGTTGTTCGTCAA; 5' phosphate, internal formylindole, protecting groups; modified_base 1 OTHER; 5' phosphorylated nucleotide; modified_base 8 OTHER; Formylindole modified nucleotide)”, the “HPLC peak after exposure to anhydrous TFA” value is “largely unchanged”.
